Test results published in ChEMBL document CHEMBL5584338, “Design, Synthesis, and Biological Evaluation of 5-Amino-4-fluoro-1H-benzo[d]imidazole-6-carboxamide Derivatives as Novel and Potential MEK/RAF Complex Inhibitors Based on the "Clamp" Strategy” (J Med Chem, 2024).
The source made the active and inactive calls. No cut-off for these calls is given here.

What was measured:
MIA PaCa-2 [1] = test: Induction of apoptosis in human MIA PaCa-2 cells assessed as early apoptotic cells at 5 uM incubated for 24 hrs by Annexin V-FITC/PI staining based flow cytometry (reference value: 5.02 %); type: functional
[2] = Toxicity in BALB/c mouse xenografted with […] harboring KRAS G12D mutant assessed as body weight change at 5 to 30 mg/kg, iv administered 5 times a week for 12 days; type: organism-based, C-26; settings: in vivo, 288 h, dose 5-30 mg/kg, time 12 day
MIA PaCa-2 [3] = test: Induction of apoptosis in human MIA PaCa-2 cells assessed as early apoptotic cells at 1 uM incubated for 24 hrs by Annexin V-FITC/PI staining based flow cytometry (reference value: 5.02 %); type: functional
MIA PaCa-2 [4] = test: Induction of apoptosis in human MIA PaCa-2 cells assessed as late apoptotic cells at 1 uM incubated for 24 hrs by Annexin V-FITC/PI staining based flow cytometry (reference value: 6.90 %); type: functional
MIA PaCa-2 [5] = test: Antiproliferative activity against human MIA PaCa-2 cells harboring KRAS G12C mutant incubated for 72 hrs by CCK8 assay; type: functional, cell-based; settings: MIA PaCa-2, 72 h
MIA PaCa-2 [6] = test: Induction of apoptosis in human MIA PaCa-2 cells assessed as early apoptotic cells at 0.05 uM incubated for 24 hrs by Annexin V-FITC/PI staining based flow cytometry (reference value: 5.02 %); type: functional
MIA PaCa-2 [7] = test: Induction of cell cycle arrest at G0/G1 phase in human MIA PaCa-2 cells at 0.01 to 0.25 uM incubated for 24 hrs by PI/RNase staining based flow cytometry (reference value: 47.37 %); type: functional; settings: dose 0.01-0.25 µM
MIA PaCa-2 [8] = test: Induction of apoptosis in human MIA PaCa-2 cells assessed as early apoptotic cells at 0.25 uM incubated for 24 hrs by Annexin V-FITC/PI staining based flow cytometry (reference value: 5.02 %); type: functional
C-26 = test: Antitumor activity against mouse C26 cells harboring KRAS G12D mutant xenografted in BALB/c mouse assessed as tumor growth inhibition administered intravenously 5 times a week for 12 days; type: functional, cell-based; settings: dose 5-30 mg/kg, route iv, time 12.0 day
HCT-116 [9] = test: Antiproliferative activity against human HCT-116 cells harboring KRAS G13D mutant incubated for 72 hrs by CCK8 assay; type: functional, cell-based; settings: HCT-116, 72 h
[10] = Toxicity in BALB/c mouse xenografted with […] harboring KRAS G12D mutant assessed as animal death at 5 to 30 mg/kg, iv administered 5 times a week for 12 days; type: organism-based, C-26; settings: in vivo, 288 h, dose 5-30 mg/kg, time 12 day
[11] = Half life in Sprague-Dawley rat at 5 mg/kg, iv; type: ADME, organism-based; settings: in vivo
[12] = Antiproliferative activity against mouse C26 cells harboring KRAS G12D mutant incubated for 72 hrs by CCK8 assay; type: functional, cell-based, C-26; settings: C26, 72 h
[13] = molecular target: Dual specificity mitogen-activated protein kinase kinase; MEK1/2 (Homo sapiens) (UniProt P36507+Q02750); test: Inhibition of MEK phosphorylation in human MIA PaCa-2 cells at lower concentration incubated for at least 48 hrs by Western blot analysis; type: cell-based
Dual specificity mitogen-activated protein kinase kinase; MEK1/2 (Homo sapiens), sequence (P36507 whole entry, looked up): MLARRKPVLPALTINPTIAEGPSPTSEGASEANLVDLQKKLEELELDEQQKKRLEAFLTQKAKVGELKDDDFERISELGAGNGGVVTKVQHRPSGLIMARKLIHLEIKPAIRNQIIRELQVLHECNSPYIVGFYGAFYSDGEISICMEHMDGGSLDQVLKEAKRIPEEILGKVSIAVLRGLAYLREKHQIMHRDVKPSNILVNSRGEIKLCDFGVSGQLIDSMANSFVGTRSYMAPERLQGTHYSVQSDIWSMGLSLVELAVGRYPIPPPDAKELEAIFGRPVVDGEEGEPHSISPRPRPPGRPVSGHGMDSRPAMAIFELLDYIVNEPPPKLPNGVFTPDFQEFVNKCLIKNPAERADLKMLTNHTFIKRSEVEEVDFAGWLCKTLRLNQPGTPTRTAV
Dual specificity mitogen-activated protein kinase kinase; MEK1/2 (Homo sapiens), sequence (Q02750 whole entry, looked up): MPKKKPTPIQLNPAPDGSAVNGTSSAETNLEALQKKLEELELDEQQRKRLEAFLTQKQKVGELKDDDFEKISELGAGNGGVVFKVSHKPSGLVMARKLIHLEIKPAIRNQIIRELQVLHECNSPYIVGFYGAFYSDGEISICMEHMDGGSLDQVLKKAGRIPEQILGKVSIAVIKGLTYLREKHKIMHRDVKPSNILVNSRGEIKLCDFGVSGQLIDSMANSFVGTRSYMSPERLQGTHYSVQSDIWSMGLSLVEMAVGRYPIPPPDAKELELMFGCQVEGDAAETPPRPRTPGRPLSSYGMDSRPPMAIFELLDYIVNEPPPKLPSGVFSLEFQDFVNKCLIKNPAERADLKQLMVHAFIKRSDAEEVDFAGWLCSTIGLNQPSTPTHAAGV

MIA PaCa-2 [14] = test: Induction of apoptosis in human MIA PaCa-2 cells assessed as late apoptotic cells at 5 uM incubated for 24 hrs by Annexin V-FITC/PI staining based flow cytometry (reference value: 6.90 %); type: functional
[15] = Antiproliferative activity against rat H9c2 cells incubated for 72 hrs by CCK8 assay; type: toxicity, cell-based
[16] = molecular target: Dual specificity mitogen-activated protein kinase kinase 1 (Homo sapiens, UniProt Q02750); test: Inhibition of MEK1 (unknown origin) at 1 uM by kinase profiling analysis
Dual specificity mitogen-activated protein kinase kinase 1, sequence (Q02750 whole entry): as the sequence (Q02750 whole entry, looked up) above

HCT-116 [17] = test: Antiproliferative activity against human HCT-116 cells harboring KRAS G13D mutant at 1 uM incubated for 72 hrs by CCK8 assay relative to control; type: functional
MIA PaCa-2 [18] = test: Inhibition of colony formation in human MIA PaCa-2 cells incubated for 10 days by crystal violet staining based analysis; type: functional, cell-based; settings: dose 0.01-1 µM, time 10.0 day

Compound: CCNS(=O)(=O)Nc1cccc(Cn2cnc3c(F)c(Nc4ccc(C5CC5)cc4F)c(C(=O)NOCCO)cc32)c1F
- Activity (MIA PaCa-2 [1]): 42.1%
- Activity [2]: Non-Toxic
- Activity (MIA PaCa-2 [3]): 32.3%
- Activity (MIA PaCa-2 [4]): 8.21%
- IC50 (MIA PaCa-2 [5]): 0.011 µM
- Activity (MIA PaCa-2 [6]): 10.7%
- Activity (MIA PaCa-2 [7]): 87.94%
- Activity (MIA PaCa-2 [8]): 30.9%
- inhibition (C-26): Active
- IC50 (HCT-116 [9]): 0.079 µM
- Activity [10]: Non-Toxic
- half-life [11]: 55.2 min
- IC50 [12]: 0.096 µM
- inhibition [13]: Active
- Activity (MIA PaCa-2 [14]): 9.09%
- IC50 at 72 h [15]: > 50 µM
- inhibition [16]: Active
- inhibition at 1 µM (HCT-116 [17]): 61.5%
- inhibition (MIA PaCa-2 [18]): Dose-Dependent Effect
